Results taken from patent publication US10045983B2, “Heteroaryl pyridone and aza-pyrodine compounds” (Genentech, Inc., priority 2011, dated 2018).

Experiment: CD69 Whole Blood Assay (CD69 Hu Blood FACS)
Format: cell-based, human
Conditions: Lymphocyte; human whole blood, anti-IgM activated B lymphocytes, FACS; IC70; Table 2 (unit inferred); read-out: CD69 Hu Blood FACS (IC70)
Summary of the method: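 Compounds tested for blocking B-cell CD69 induction by flow cytometry in human whole blood, with activation via anti-human IgM goat F(ab′)2 crosslinking of surface IgM.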

SMILES | IC70 [µM]
Cc1cc(Nc2cc(-c3ccnc(N4CCn5c(cc6c5CC(C)(C)C6)C4=O)c3CO)cn(C)c2=O)no1 [Example 283, 3-[3-(hydroxymethyl)-4-[1-methyl-5-[(5-methylisoxazol-3-yl)amino]-6-oxo-3-pyridyl]-2-pyridyl]-7,7-dimethyl-1,2,6,8-tetrahydrocyclopenta[3,4]pyrrolo[3,5-b]pyrazin-4-one] | 0.143
Cn1cc(-c2ccnc(N3CCc4c(c(F)c5n4CCCC5)C3=O)c2CO)cc(Nc2cc3n(n2)CCN(C2COC2)C3)c1=O [Example 284, 10-fluoro-2-[3-(hydroxymethyl)-4-[1-methyl-5-[[5-(oxetan-3-yl)-6,7-dihydro-4H-pyrazolo[1,5-a]pyrazin-2-yl]amino]-6-oxo-3-pyridyl]-2-pyridyl]-3,4,6,7,8,9-hexahydropyrido[3,4-b]indolizin-1-one] | 0.131
Cn1cc(-c2ccnc(N3CCn4c(cc5c4CC(C)(C)C5)C3=O)c2CO)cc(Nc2cn(C3COC3)cn2)c1=O [Example 285, 3-[3-(hydroxymethyl)-4-[1-methyl-5-[[1-(oxetan-3-yl)imidazol-4-yl]amino]-6-oxo-3-pyridyl]-2-pyridyl]-7,7-dimethyl-1,2,6,8-tetrahydrocyclopenta[3,4]pyrrolo[3,5-b]pyrazin-4-one] | 0.175
Cn1cc(-c2ccnc(N3CCn4c(cc5c4CC(C)(C)C5)C3=O)c2CO)cc(Nc2ccon2)c1=O [Example 286, 3-[3-(hydroxymethyl)-4-[5-(isoxazol-3-ylamino)-1-methyl-6-oxo-3-pyridyl]-2-pyridyl]-7,7-dimethyl-1,2,6,8-tetrahydrocyclopenta[3,4]pyrrolo[3,5-b]pyrazin-4-one] | 0.167
CC1c2cc(Nc3cc(-c4ccnc(N5CCn6c(cc7c6CCCC7)C5=O)c4CO)cn(C)c3=O)nn2CCN1C (centres unmarked) [Example 287, 2-[4-[5-[(4,5-dimethyl-6,7-dihydro-4H-pyrazolo[1,5-a]pyrazin-2-yl)amino]-1-methyl-6-oxo-3-pyridyl]-3-(hydroxymethyl)-2-pyridyl]-3,4,6,7,8,9-hexahydropyrazino[1,2-a]indol-1-one] | 0.127
Cc1cc(Nc2cc(-c3ccnc(-n4ncc5c6c(sc5c4=O)CC(C)(C)C6)c3CO)cn(C)c2=O)no1 [Example 288, 3-[3-(hydroxymethyl)-4-[1-methyl-5-[(5-methylisoxazol-3-yl)amino]-6-oxo-3-pyridyl]-2-pyridyl]-7,7-dimethyl-6,8-dihydrocyclopenta[3,4]thieno[1,3-d]pyridazin-4-one] | 0.229
Cn1cc(-c2ccnc(N3CCn4c(cc5c4CC(C)(C)C5)C3=O)c2CO)cc(Nc2cc[nH]n2)c1=O [Example 289, 3-[3-(hydroxymethyl)-4-[1-methyl-6-oxo-5-(1H-pyrazol-3-ylamino)-3-pyridyl]-2-pyridyl]-7,7-dimethyl-1,2,6,8-tetrahydrocyclopenta[3,4]pyrrolo[3,5-b]pyrazin-4-one] | 0.214
Cn1ccc(Nc2cc(-c3ccnc(N4CCn5c(cc6c5CC(C)(C)C6)C4=O)c3CO)cn(C)c2=O)n1 [Example 290, 3-[3-(hydroxymethyl)-4-[1-methyl-5-[(1-methylpyrazol-3-yl)amino]-6-oxo-3-pyridyl]-2-pyridyl]-7,7-dimethyl-1,2,6,8-tetrahydrocyclopenta[3,4]pyrrolo[3,5-b]pyrazin-4-one] | 0.113
Cc1cc(Nc2cc(-c3ccnc(-n4ncc5c6c(sc5c4=O)CCCC6)c3CO)cn(C)c2=O)no1 [Example 291, 3-[3-(hydroxymethyl)-4-[1-methyl-5-[(5-methylisoxazol-3-yl)amino]-6-oxo-3-pyridyl]-2-pyridyl]-6,7,8,9-tetrahydrobenzothiopheno[2,3-d]pyridazin-4-one] | 0.843
Cc1cc(Nc2cc(-c3ccnc(-n4ncc5c6c(sc5c4=O)CC(C)(C)C6)c3CO)cn(C)c2=O)nn1C [Example 292, 3-[4-[5-[(1,5-dimethylpyrazol-3-yl)amino]-1-methyl-6-oxo-3-pyridyl]-3-(hydroxymethyl)-2-pyridyl]-7,7-dimethyl-6,8-dihydrocyclopenta[3,4]thieno[1,3-d]pyridazin-4-one] | 0.118
Cn1cc(Nc2cc(-c3ccnc(N4CCn5c(cc6c5CC(C)(C)C6)C4=O)c3CO)cn(C)c2=O)nn1 [Example 293, 3-[3-(hydroxymethyl)-4-[1-methyl-5-[(1-methyltriazol-4-yl)amino]-6-oxo-3-pyridyl]-2-pyridyl]-7,7-dimethyl-1,2,6,8-tetrahydrocyclopenta[3,4]pyrrolo[3,5-b]pyrazin-4-one] | 0.0691
Cn1cc(-c2ccnc(N3CCn4c(cc5c4CC(C)(C)C5)C3=O)c2CO)cc(Nc2cc(C(C)(C)C)on2)c1=O [Example 294, 3-[4-[5-[(5-tert-butylisoxazol-3-yl)amino]-1-methyl-6-oxo-3-pyridyl]-3-(hydroxymethyl)-2-pyridyl]-7,7-dimethyl-1,2,6,8-tetrahydrocyclopenta[3,4]pyrrolo[3,5-b]pyrazin-4-one] | 0.276
CCc1cc(Nc2cc(-c3ccnc(N4CCn5c(cc6c5CC(C)(C)C6)C4=O)c3CO)cn(C)c2=O)no1 [Example 295, 3-[4-[5-[(5-ethylisoxazol-3-yl)amino]-1-methyl-6-oxo-3-pyridyl]-3-(hydroxymethyl)-2-pyridyl]-7,7-dimethyl-1,2,6,8-tetrahydrocyclopenta[3,4]pyrrolo[3,5-b]pyrazin-4-one] | 0.134
COCCN1CCn2nc(Nc3cc(-c4ccnc(N5CCn6c(cc7c6CC(C)(C)C7)C5=O)c4CO)cn(C)c3=O)cc2C1 [Example 296, 3-[3-(hydroxymethyl)-4-[5-[[5-(2-methoxyethyl)-6,7-dihydro-4H-pyrazolo[1,5-a]pyrazin-2-yl]amino]-1-methyl-6-oxo-3-pyridyl]-2-pyridyl]-7,7-dimethyl-1,2,6,8-tetrahydrocyclopenta[3,4]pyrrolo[3,5-b]pyrazin-4-one] | 0.0193
CN1CCn2nc(Nc3cc(-c4ccnc(N5CCn6c(cc7c6CC(C)(C)C7)C5=O)c4CO)nn(C)c3=O)cc2C1 [Example 297, 3-[3-(hydroxymethyl)-4-[1-methyl-5-[(5-methyl-6,7-dihydro-4H-pyrazolo[1,5-a]pyrazin-2-yl)amino]-6-oxo-pyridazin-3-yl]-2-pyridyl]-7,7-dimethyl-1,2,6,8-tetrahydrocyclopenta[3,4]pyrrolo[3,5-b]pyrazin-4-one] | 0.14
Cn1cc(-c2ccnc(N3CCn4c(cc5c4CC(C)(C)C5)C3=O)c2CO)cc(Nc2cnc(C#N)cn2)c1=O [Example 298, 5-[[5-[2-(7,7-dimethyl-4-oxo-1,2,6,8-tetrahydrocyclopenta[3,4]pyrrolo[3,5-b]pyrazin-3-yl)-3-(hydroxymethyl)-4-pyridyl]-1-methyl-2-oxo-3-pyridyl]amino]pyrazine-2-carbonitrile] | 0.869
Cn1cc(-c2ccnc(N3CCn4c(cc5c4CC(C)(C)C5)C3=O)c2CO)cc(Nc2cc(-c3ccccc3)on2)c1=O [Example 299, 3-[3-(hydroxymethyl)-4-[1-methyl-6-oxo-5-[(5-phenylisoxazol-3-yl)amino]-3-pyridyl]-2-pyridyl]-7,7-dimethyl-1,2,6,8-tetrahydrocyclopenta[3,4]pyrrolo[3,5-b]pyrazin-4-one] | 2.1
COC[C@@H](C)N1CCn2nc(Nc3cc(-c4ccnc(N5CCn6c(cc7c6CC(C)(C)C7)C5=O)c4CO)cn(C)c3=O)cc2C1 [Example 300, (R)-2-(3′-(hydroxymethyl)-5-((5-(1-methoxypropan-2-yl)-4,5,6,7-tetrahydropyrazolo[1,5-a]pyrazin-2-yl)amino)-1-methyl-6-oxo-1,6-dihydro-[3,4′-bipyridin]-2′-yl)-7,7-dimethyl-2,3,4,6,7,8-hexahydro-1H-cyclopenta[4,5]pyrrolo[1,2-a]pyrazin-1-one] | 0.024
Cn1cc(-c2ccnc(N3CCn4c(cc5c4CC(C)(C)C5)C3=O)c2CO)cc(Nc2ccc(C(F)(F)F)nn2)c1=O [Example 301, 3-[3-(hydroxymethyl)-4-[1-methyl-6-oxo-5-[[6-(trifluoromethyl)pyridazin-3-yl]amino]-3-pyridyl]-2-pyridyl]-7,7-dimethyl-1,2,6,8-tetrahydrocyclopenta[3,4]pyrrolo[3,5-b]pyrazin-4-one] | 1.3
CN(Cc1cc(Nc2cc(-c3ccnc(N4CCn5c(cc6c5CC(C)(C)C6)C4=O)c3CO)cn(C)c2=O)nn1C)C1COC1 [Example 302, 3-[3-(hydroxymethyl)-4-[1-methyl-5-[[1-methyl-5-[[methyl(oxetan-3-yl)amino]methyl]pyrazol-3-yl]amino]-6-oxo-3-pyridyl]-2-pyridyl]-7,7-dimethyl-1,2,6,8-tetrahydrocyclopenta[3,4]pyrrolo[3,5-b]pyrazin-4-one] | 0.0228
COCCN1CCn2nc(Nc3cc(-c4ccnc(-n5ncc6c7c(sc6c5=O)CC(C)(C)C7)c4CO)cn(C)c3=O)cc2C1 [Example 304, 3-[3-(hydroxymethyl)-4-[5-[[5-(2-methoxyethyl)-6,7-dihydro-4H-pyrazolo[1,5-a]pyrazin-2-yl]amino]-1-methyl-6-oxo-3-pyridyl]-2-pyridyl]-7,7-dimethyl-6,8-dihydrocyclopenta[3,4]thieno[1,3-d]pyridazin-4-one] | 0.04
COCCN1CCn2nc(Nc3cc(-c4ccnc(N5CCn6c(cc7c6CC(C)(C)C7)C5=O)c4CO)nn(C)c3=O)cc2C1 [Example 305, 3-[3-(hydroxymethyl)-4-[5-[[5-(2-methoxyethyl)-6,7-dihydro-4H-pyrazolo[1,5-a]pyrazin-2-yl]amino]-1-methyl-6-oxo-pyridazin-3-yl]-2-pyridyl]-7,7-dimethyl-1,2,6,8-tetrahydrocyclopenta[3,4]pyrrolo[3,5-b]pyrazin-4-one] | 0.0832
COc1ccc(Nc2cc(-c3ccnc(N4CCn5c(cc6c5CC(C)(C)C6)C4=O)c3CO)cn(C)c2=O)nn1 [Example 306, 3-[3-(hydroxymethyl)-4-[5-[(6-methoxypyridazin-3-yl)amino]-1-methyl-6-oxo-3-pyridyl]-2-pyridyl]-7,7-dimethyl-1,2,6,8-tetrahydrocyclopenta[3,4]pyrrolo[3,5-b]pyrazin-4-one] | 0.602
